Assay results taken from the supplement of paper PMC10307832.

Assays:
Assay in all cases: relative viability (nuclei count vs DMSO), 5 days (fraction); higher = more cells survive
[1] = compound: CN(C)CC1=CC(=CC=C1)N=C(C2=CC=CC=C2)C3=C(NC4=C3C=CC(=C4)C(=O)N(C)C)O + CCNC(=O)c1noc(-c2cc(C(C)C)c(O)cc2O)c1-c1ccc(CN2CCOCC2)cc1 [Luminespib] (partner 0.01 µM)
How it was run: (§1)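 A single step with final 0.05% Triton X-100, 1% formaldehyde and 1 ug/ml Hoechst fixed the cells and stained nuclei 5 days after treatment. Lung cancer cell lines in 1536-well plates had been treated by pin tool the day after seeding with one drug alone or a fixed anchor-drug dose plus five library-drug doses (not always all listed) in √10 steps, and nuclei were counted on 4× images. Relative viability is the ratio of nuclei in treated wells to nuclei in vehicle wells, taken as the median of duplicate plates.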

[2] = compound: CN(C)CC1=CC(=CC=C1)N=C(C2=CC=CC=C2)C3=C(NC4=C3C=CC(=C4)C(=O)N(C)C)O + COc1cc2c(Oc3ccc(NC(=O)C4(C(=O)Nc5ccc(F)cc5)CC4)cc3F)ccnc2cc1OCCCN1CCOCC1 [Foretinib] (partner 0.25 µM)
How it was run: as §1

[3] = compound: CN(C)CC1=CC(=CC=C1)N=C(C2=CC=CC=C2)C3=C(NC4=C3C=CC(=C4)C(=O)N(C)C)O + Cc1cc(Nc2cc(N3CCN(C)CC3)nc(Sc3ccc(NC(=O)C4CC4)cc3)n2)n[nH]1 [Tozasertib] (partner 0.1 µM)
How it was run: as §1

[4] = compound: CN(C)CC1=CC(=CC=C1)N=C(C2=CC=CC=C2)C3=C(NC4=C3C=CC(=C4)C(=O)N(C)C)O + NC(=O)Nc1cc(-c2cccc(F)c2)sc1C(=O)N[C@H]1CCCNC1 [AZD7762] (partner 0.2 µM)
How it was run: as §1

Cell Line	relative viability ([1]; first compound 0.08 µM)	relative viability ([1]; first compound 0.253 µM)	relative viability ([1]; first compound 0.8 µM)	relative viability ([1]; first compound 2.53 µM)	relative viability ([1]; first compound 8 µM)	relative viability ([2]; first compound 0.08 µM)	relative viability ([2]; first compound 0.253 µM)	relative viability ([2]; first compound 0.8 µM)	relative viability ([2]; first compound 2.53 µM)	relative viability ([2]; first compound 8 µM)	relative viability ([3]; first compound 0.08 µM)	relative viability ([3]; first compound 0.253 µM)	relative viability ([3]; first compound 0.8 µM)	relative viability ([3]; first compound 2.53 µM)	relative viability ([3]; first compound 8 µM)	relative viability ([4]; first compound 0.08 µM)	relative viability ([4]; first compound 0.253 µM)	relative viability ([4]; first compound 0.8 µM)	relative viability ([4]; first compound 2.53 µM)	relative viability ([4]; first compound 8 µM)
NCI-H2405	0.992	0.652	0.681	0.614	0.552	1.04	1.08	1.01	0.992	1.04	0.748	0.74	0.748	0.662	0.645	0.715	0.72	0.713	0.659	0.681
NCI-H3122	0.0882	0.0788	0.075	0.142	0.0907	0.995	0.983	1.01	1.02	0.966	0.416	0.359	0.448	0.383	0.438	1.01	0.967	1.03	1.02	1.07
PC-3 [JPC-3]	0.705	0.69	0.707	0.751	0.695	1.06	1.09	0.916	1.03	1.06	0.877	0.855	0.854	0.814	0.922	0.872	0.938	0.753	0.806	1.02
PC-14	0.206	0.131	0.146	0.145	0.102	0.9	0.903	1.02	0.934	0.951	0.564	0.604	0.618	0.531	0.649	0.392	0.395	0.377	0.387	0.411
RERF-LC-KJ	1.34	1.4	1.25	1.13	1.23	0.865	0.894	0.873	0.833	0.907	0.494	0.493	0.536	0.523	0.408	1.02	1	0.796	1.05	0.866
SW 900	0.175	0.167	0.188	0.18	0.202	0.867	0.842	0.7	0.887	0.861	0.669	0.58	0.519	0.562	0.552	0.664	0.581	0.55	0.649	0.685
